Reference: patent publication US20250171434A1, “SEC61 INHIBITORS AND USE THEREOF” (KEZAR LIFE SCIENCES, INC., priority 2022, published 2025)
Read-outs that look alike come from different tables or passages of the source.

Experiments:
[1] = Liver Microsome Stability Assay, monkey; assay type: in vitro ADME; conditions: monkey liver microsomes 1.0 mg/mL, 1.0 uM compound, 37° C., 1 mM NADPH
How it was run: (§1)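 Compound at 1.0 uM (0.4% DMSO) was incubated at 37° C with 1.0 mg/mL liver microsomes in 0.1 M potassium phosphate, with or without 1 mM NADPH. Samples were quenched at 0 and 30 minutes.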

[2] = test system: TNFα-FL/Gaussia Luciferase; assay: Dox Induced TNFα-FL-Gluc Assay; assay type: cell-based
Text: (§2) Flp-In 293 T-REx™ cells were transfected with pcDNA™5/FRT/TO plasmid inserted with cDNA encoding Gaussia Luciferase fused to the 3′ end of cDNA encoding full length TNFα (amino acids 1-233). Transfected cells were selected for resistance to the selectable markers Hygromycin and Blasticidin to create a stable cell line that contained the TNFα-FL/Gaussia Luciferase cDNA insert whose expression was regulated under the T-REx™ system. The day before assay, cells were trypsinized and plated in 384-well tissue culture plates. The next day, compound dilutions in DMSO/media containing doxycycline were added to the wells and incubated at 37° C., 5% CO2.
(§3) For chemical structures that include one or more stereoisomers, but are illustrated without indicating stereochemistry, the assay data refers to a mixture of stereoisomers.

[3] = Liver Microsome Stability Assay, human; assay type: in vitro ADME; conditions: human liver microsomes 1.0 mg/mL, 1.0 uM compound, 37° C., 1 mM NADPH
How it was run: as §1

[4] = test system: HER3-ss+4aa/Gaussia Luciferase; assay: Dox-Inducible Her3-ss-Gluc Assay; assay type: cell-based
Text: as §2, with “HER3 signal sequence plus 4 amino” for “full length TNFα (amino”, “(N-[…]-C) (SEQ ID NO: 2).” for “1-233).”, “HER3-ss+4aa/Gaussia” for “TNFα-FL/Gaussia”
as §3

[5] = test system: PD1-ss+10aa/Gaussia Luciferase; assay: Dox-Induced PD1-ss-Gluc Assay; assay type: cell-based
How it was run: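 Compounds were added in DMSO/media with doxycycline and incubated at 37 °C, 5% CO2, on 293 T-REx cells plated one day earlier. These cells stably express, under tetracycline-regulated control, a Gaussia luciferase fused to the PD1 signal peptide plus 10 residues. Structures drawn without stereochemistry were tested as stereoisomer mixtures.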

[6] = test system: IL-2-FL/Gaussia Luciferase; assay: Dox Inducible IL2-FL-Gluc Assay; assay type: cell-based
How it was run: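 Flp-In 293 T-REx cells stably carrying doxycycline-inducible full-length IL-2 (aa 1-153) fused at its C-terminus to Gaussia luciferase, selected with hygromycin and blasticidin. Cells were plated the day before, then treated with compounds in DMSO/media containing doxycycline at 37° C, 5% CO2.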

[7] = Liver Microsome Stability Assay, rat; assay type: in vitro ADME; conditions: rat liver microsomes 1.0 mg/mL, 1.0 uM compound, 37° C., 1 mM NADPH
How it was run: as §1

[8] = test system: multiple myeloma cell line U266B1; assay: U266 Cell Viability Assay; assay type: cell-based; conditions: Homo sapiens
How it was run: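 Cells grown in RPMI 1640 with 10% FBS, 2 mM glutamine and penicillin/streptomycin were exposed to compound dilutions in DMSO/media for 48 hours at 37° C., 5% CO2. Viability was read by CellTiter-Glo luminescence. Undefined stereocentres mean data for stereoisomer mixtures.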

[9] = Liver Microsome Stability Assay, mouse; assay type: in vitro ADME; conditions: mouse liver microsomes 1.0 mg/mL, 1.0 uM compound, 37° C., 1 mM NADPH
How it was run: as §1

[10] = test system: multiple myeloma cell line NCI-H929; assay: H929 Cell Viability Assay; assay type: cell-based, human; conditions: Homo sapiens
How it was run: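 NCI-H929 cells, resuspended in RPMI 1640 with 10% FBS and 2 mM glutamine, were treated with compound dilutions in DMSO/media and incubated 48 hours at 37° C, 5% CO2. Viability was read by CellTiter-Glo luminescence. Compounds drawn without stereochemistry were tested as stereoisomer mixtures.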

[11] = Flp-In 293 T-REx cells, 24 hours with doxycycline; Table 3; read-out: 24 hr Dox Inducible TNFaFLGluc 293FRT/TO: Mean IC50
[12] = ratio of IC50s TNF/PD1; Table 3
[13] = Flp-In 293 T-REx cells, 24 hours with doxycycline; Table 3; read-out: 24 hr Dox Inducible Her3(ss + 4)Gluc 293FRT/TO: Mean IC50
[14] = Flp-In 293 T-REx cells, 24 hours with doxycycline; Table 3; read-out: 24 hr Dox Inducible PD1ssGluc 293FRT/TO: Mean IC50
[15] = Flp-In 293 T-REx cells, 24 hours with doxycycline; Table 3; read-out: 24 hr Dox Inducible IL2FLGluc 293FRT/TO: Mean IC50
[16] = ratio of IC50s IL2/PD1; Table 3
[17] = U-266, U266B1 cells, 48 hours, Celltiter-Glo, read-out: 48 hr U266 Viability Celltiter-Glo: Mean EC50
[18] = NCI-H929 cells, 48 hours, Celltiter-Glo, read-out: 48 hr H929 Viability Celltiter-Glo: Mean EC50

SMILES | Liver Microsome Stability (Multiple Species): Monkey - % Remaining after 30 min w/ NADPH (%) [1] [%] | IC50 [2, 11] [µM] | 24 hr Dox Inducible TNFaFLGluc 293FRT/TO: TNF/PD1 [2, 12] | Liver Microsome Stability (Multiple Species): Human - % Remaining after 30 min w/ NADPH (%) [3] [%] | IC50 [4, 13] [µM] | IC50 [5, 14] [µM] | IC50 [6, 15] [µM] | 24 hr Dox Inducible IL2FLGluc 293FRT/TO: IL2/PD1 [6, 16] | Liver Microsome Stability (Multiple Species): Rat - % Remaining after 30 min w/ NADPH (%) [7] [%] | EC50 [8, 17] [nM] | Liver Microsome Stability (Multiple Species): Mouse - % Remaining after 30 min w/ NADPH (%) [9] [%] | EC50 [10, 18] [nM] | IC50 ([2]; read-out: 24 hr Dox Inducible TNFaFLGluc 293FRT/TO: Mean IC50; Flp-In 293 T-REx cells, 24 hours with doxycycline; Table 3) [µM] | IC50 ([4]; read-out: 24 hr Dox Inducible Her3(ss + 4)Gluc 293FRT/TO: Mean IC50; Flp-In 293 T-REx cells, 24 hours with doxycycline; Table 3) [µM] | IC50 ([5]; read-out: 24 hr Dox Inducible PD1ssGluc 293FRT/TO: Mean IC50; Flp-In 293 T-REx cells, 24 hours with doxycycline; Table 3) [µM] | IC50 ([6]; read-out: 24 hr Dox Inducible IL2FLGluc 293FRT/TO: Mean IC50; Flp-In 293 T-REx cells, 24 hours with doxycycline; Table 3) [µM] | EC50 ([8]; U-266, 48 h, read-out: 48 hr U266 Viability Celltiter-Glo: Mean EC50 (nM)) [nM] | EC50 ([10]; NCI-H929, 48 h, read-out: 48 hr H929 Viability Celltiter-Glo: Mean EC50 (nM)) [nM]
O=C(Nc1nc(/C=C/c2ccc(Cl)cn2)cs1)c1cccn1Cc1ccnc(F)c1 [Compound B8, (E)-N-(4-(2-(5-chloropyridin-2-yl)vinyl)thiazol-2-yl)-1-((2-fluoropyridin-4-yl)methyl)-1H-pyrrole-2-carboxamide] | 4 | 11.2 | 462 | 22 | 1.18 | 0.024 | 1.68 | 69 | 1 | > 25000 | 11 | > 25000 |  |  |  |  |  | 
O=C(Nc1nc(/C=C/[C@H]2CC[C@@H](C(F)(F)F)CC2)cs1)c1cccn1Cc1ccncc1 [Compound B9, 1-(pyridin-4-ylmethyl)-N-(4-((E)-2-((1s,4s)-4-(trifluoromethyl)cyclohexyl)vinyl)thiazol-2-yl)-1H-pyrrole-2-carboxamide] | 1 | 3.97 | 25 | 6 | 0.298 | 0.161 | 0.748 | 5 | 4 | 20000 | 6 | 6260 |  |  |  |  |  | 
O=C(Nc1nc(/C=C/[C@H]2CC[C@H](C(F)(F)F)CC2)cs1)c1cccn1Cc1ccncc1 [Compound B10, 1-(pyridin-4-ylmethyl)-N-(4-((E)-2-((1r,4r)-4-(trifluoromethyl)cyclohexyl)vinyl)thiazol-2-yl)-1H-pyrrole-2-carboxamide] | 11 | 1.01 | 25 | 38 | 0.086 | 0.041 | 0.249 | 6 | 5 | > 25000 | 49 | 5810 |  |  |  |  |  | 
Cc1sc(NC(=O)c2cccn2Cc2ccnc(F)c2)nc1/C=C/c1cn(C(C)C)cn1 [Compound B23, (E)-1-((2-fluoropyridin-4-yl)methyl)-N-(4-(2-(1-isopropyl-1H-imidazol-4-yl)vinyl)-5-methylthiazol-2-yl)-1H-pyrrole-2-carboxamide] | 1 |  | >422 | <1 |  |  |  | >420 | 19 |  | 16 |  | > 25 | 3.39 | 0.059 | > 25 | > 25000 | > 25000
C/C(=C\c1cn(C(C)C)cn1)c1csc(NC(=O)c2cccn2Cc2ccnc(F)c2)n1 [Compound B24, (E)-1-((2-fluoropyridin-4-yl)methyl)-N-(4-(1-(1-isopropyl-1H-imidazol-4-yl)prop-1-en-2-yl)thiazol-2-yl)-1H-pyrrole-2-carboxamide] | <1 | > 25 | >46 | 1 | > 25 | 0.54 | > 25 | >46 | 1 | 15300 | 3 | 13600 |  |  |  |  |  | 
